Measured values as given in ChEMBL document CHEMBL1128764, “Peptidyl aldehyde derivatives as potent and selective inhibitors of cathepsin L” (Bioorg Med Chem Lett, 1995).
Calls of active or inactive are those of the source. The rule behind the calls is not given here. Where a SMILES comes first, the peptide text is derived from it. The star is where a group is joined. Cbz = O=C(OCc1ccccc1)*

What was measured:
[1] = target: T1, Calpain-2 catalytic subunit (Homo sapiens, UniProt P17655); assay: Compound was tested for its inhibitory activity against calpain 2
T1 sequence (P17655 whole entry): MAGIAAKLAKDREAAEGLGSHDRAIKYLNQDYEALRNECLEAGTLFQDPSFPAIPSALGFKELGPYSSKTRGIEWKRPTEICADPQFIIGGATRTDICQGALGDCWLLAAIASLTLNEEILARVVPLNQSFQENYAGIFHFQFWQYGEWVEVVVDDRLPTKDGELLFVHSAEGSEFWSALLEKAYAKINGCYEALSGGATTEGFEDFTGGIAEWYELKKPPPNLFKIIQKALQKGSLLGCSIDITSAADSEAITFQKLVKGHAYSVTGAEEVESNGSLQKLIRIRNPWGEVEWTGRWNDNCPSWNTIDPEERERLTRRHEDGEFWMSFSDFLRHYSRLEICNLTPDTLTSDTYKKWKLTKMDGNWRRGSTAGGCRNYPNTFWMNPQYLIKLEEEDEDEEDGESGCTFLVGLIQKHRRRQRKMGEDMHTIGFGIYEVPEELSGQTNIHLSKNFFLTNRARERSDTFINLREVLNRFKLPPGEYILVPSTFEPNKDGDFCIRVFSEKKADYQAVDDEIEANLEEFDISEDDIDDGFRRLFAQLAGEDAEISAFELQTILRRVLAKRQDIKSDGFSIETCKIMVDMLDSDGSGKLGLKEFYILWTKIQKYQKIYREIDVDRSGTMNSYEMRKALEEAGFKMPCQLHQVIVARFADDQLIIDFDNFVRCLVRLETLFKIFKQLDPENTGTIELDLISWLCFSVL

[2] = Compound was tested for its inhibitory activity against cathepsin L
[3] = target: T2, Cathepsin B (Homo sapiens, UniProt P07858); assay: Ratio of Inhibitory activity against cathepsin B/cathepsin L
[4] = target: T2, Cathepsin B; assay: Compound was tested for its inhibitory activity against cathepsin B
[5] = target: Chymotrypsinogen A (Bos taurus) (UniProt P00766); assay: Compound was tested for its inhibitory activity against alpha-chymotrypsin at concentration less than 1000 ng/ml; no inhibition
[6] = target: T1, Calpain-2 catalytic subunit; assay: Compound was tested for its inhibitory activity against Calpain 2

Compound | IC50 [1] [nM] | IC50 [2] [nM] | Ratio [3] | IC50 [4] [nM] | inhibition [5] | IC50 [6] [nM]
CCCCOc1ccc(C[C@H](NC(=O)[C@H](Cc2ccccc2)NC(=O)OCc2ccccc2)C(=O)O)cc1 | 79.6 | 6.96 | 120 | 836 |  | 
C[C@H](NC(=O)[C@H](Cc1ccccc1)NC(=O)OCc1ccccc1)C(=O)O |  | 15.5 | 2.91 | 45.1 | inactive | 
CC(C)C[C@H](NC(=O)[C@H](Cc1ccccc1)NC(=O)OCc1ccccc1)C(=O)O (Cbz-Phe-Leu-OH) |  | 0.78 | 22.7 | 17.7 | inactive | 
O=C(N[C@@H](Cc1ccccc1)C(=O)N[C@@H](Cc1ccccc1)C(=O)O)OCc1ccccc1 (Cbz-Phe-Phe-OH) |  | 0.74 | 94.2 | 69.7 | inactive | 104
COc1ccc(C[C@H](NC(=O)[C@H](Cc2ccccc2)NC(=O)OCc2ccccc2)C(=O)O)cc1 (Cbz-Phe-Tyr(Me)-OH) | 104 | 2.95 | 33.1 | 97.7 | inactive | 
O=C(N[C@@H](Cc1ccccc1)C(=O)N[C@@H](Cc1ccc(O)cc1)C(=O)O)OCc1ccccc1 (Cbz-Phe-Tyr-OH) | 184 | 0.85 | 100 | 85.1 | inactive | 
CC(=O)N[C@@H](CC(C)C)C(=O)N[C@@H](CC(C)C)C(=O)N[C@H](C=O)CCCNC(=N)N [LEUPEPTIN] |  | 70.3 | 1.66 | 117 | inactive | 
